Results reported in paper PMC6453917, “On resin click-chemistry-mediated synthesis of novel enkephalin analogues with potent anti-nociceptive activity” (Scientific Reports, 2019).
Where two headings read alike, the source gives them in different places. Where a SMILES comes first, the peptide text is derived from it. Bridges are numbered along the chain shown (N, C = ends). Triazole bridges read from a SMILES are 1,4-linked. [ ]: non-standard residue; d: D form. dDap(N3) = [N-]=[N+]=NC[C@@H](N)C(=O)O; dPra = C#CC[C@@H](N)C(=O)O

Experiments:
[1] = cited from earlier work
CD-1 male mice [2] = test: Formalin test; type: in vivo; conditions: s.c., 100 nmol, 15 min before formalin
Source text: The formalin test involves moderate and continuous pain generated by an injured tissue, and the measured response is the time the animals spend licking the injected paw. […] The early phase is caused predominantly by δ-fiber activation, due to a direct effect on nociceptors, while the late phase appears to be an inflammatory response, involving the unmyelinated C-fibre[44].
CD-1 male mice (Harlan, Italy) weighing 25–30 g were used in all the experiments. Before the experimental sessions, the mice were maintained in colony, housed in cages (7 mice per cage) under standard light/dark cycle (from 7:00 AM to 7:00 PM), temperature (21 ± 1 °C) and relative humidity (60 ± 10%) for at least 1 week. Food and water were available ad libitum. […]
Subcutaneous injection of a dilute solution of formalin (1%, 20 μL/paw) into the mice hind paw evoked nociceptive behavioural responses, such as licking, biting the injected paw or both, which are considered indices of nociception. […] The total time the animal spent licking or biting its paw during the early and late phase of formalin-induced nociception was recorded. […]

CD-1 male mice [3] = test: Hot plate test (thermal nociception); type: in vivo; conditions: i.v., 23 μmol.kg−1, mice
human KOP [4] = target: T1, human KOP (Homo sapiens, UniProt P41145); test: 35S-GTPγS coupling assay, KOP; type: biochemical; design: Emax: dose or concentration left out as unconfirmed; conditions: for Emax: read-out: KOP EMax (in parentheses)
T1 construct: expressed in transfected cells; host or cells: CHO cells (membrane preparations)

human KOP [5] = target: T1, human KOP; test: Competition radioligand binding vs 3H-diprenorphine, KOP
Plasma stability assay = type: in vitro ADME; conditions: human plasma, 37 °C, read-out: degradation half-life (t1/2)
Description: A plasma stability assay was performed by incubation of compounds in human plasma at a chosen initial concentration (i.e. 5 μM) at 37 °C. The aliquots of the incubated plasma samples were taken at T0 (at the beginning) and at T2 (after 4 hours). Collected samples were spiked with cold acetonitrile to precipitate proteins and prevent the compound from further decomposition. The assay was repeated in triplicate. Plasma aliquots were centrifuged and the supernatant collected and analyzed by LC-MS technique. The instrument responses were referenced to the zero time-point sample (as 100%) in order to determine the percentage of compound remaining after incubation at a given time point. The half-life parameter was calculated from linear regression of time course data.
Plasma and working solutions of experimental and control compounds (at appropriate concentrations) were warmed to 37 °C. 99 µL of plasma was dispensed into a pre-labeled 96-well plate (in triplicate per time-point). Then 1 µL of test compound and reference compound were transferred to wells filled by plasma. 200 µL of cold acetonitrile was added immediately into wells marked as the ‘0’ time point to precipitate proteins and prevent compound from biotransformation. Plates were incubated in a thermostatic shaker at 37 °C while shaken at 350 rpm. […] Samples were analyzed using an LC-MS technique.

[6] = BBB PAMPA assay (porcine brain lipids)
[7] = design: method as in PMID 29513114; conditions: cited from earlier work
[8] = design: method as in PMID 25755050; conditions: cited from earlier work
[9] = design: method as in PMID 25755050; conditions: compared with morphine; cited from earlier work
DOP = conditions: read-out: IC50 in the MVD assay; DOP agonist activity; cited from earlier work
MOP = MOP agonist activity; read-out: IC50 in the GPI assay; cited from earlier work

For `CC1(C)SSC(C)(C)[C@@H](NC(=O)[C@@H](N)Cc2ccc(O)cc2)C(=O)NCC(=O)N[C@@H](Cc2ccccc2)C(=O)N[C@H]1C(=O)O` [DPDPE, (D-Pen^2,D-Pen^5)-Enkephalin], the “antinociception after i.c.v. administration” value ([1]; i.c.v.) is given as “slightly active until 45 min”, the “antinociception after s.c. administration” value ([1]; s.c.) is given as “completely inactive” and the “antinociceptive effect, formalin test, early and late phase” value (CD-1 male mice [2]) is given as “slight but not significant antinociceptive effect”. The “antinociceptive effect (nociceptive threshold), hot plate” value (CD-1 male mice [3]) was “ineffective”.
In the case of `NC(=O)[C@H]1Cn2cc(nn2)C[C@@H](NC(=O)[C@@H](N)Cc2ccc(O)cc2)C(=O)NCC(=O)N[C@@H](Cc2ccccc2)C(=O)N1` [NOVA1, H-Tyr-c[DPra-Gly-Phe-DAza]-NH2 triazole] (H-Y[dPra]GF[dDap(N3)]-NH2; triazole 2-5), the EC50 (human KOP [4]) is reported as greater than 3.33 µM, the Emax (human KOP [4]) is reported as 56.7 ± 5.4% and the Ki (human KOP [5]) is reported as greater than 3.33 µM.
With `NC(=O)[C@H]1Cc2cn(nn2)C[C@@H](NC(=O)[C@@H](N)Cc2ccc(O)cc2)C(=O)NCC(=O)N[C@@H](Cc2ccccc2)C(=O)N1` [NOVA2, H-Tyr-c[DAza-Gly-Phe-DPra]-NH2 triazole] (H-Y[dDap(N3)]GF[dPra]-NH2; triazole 2-5) the half-life at 5 μM (Plasma stability assay) was greater than 4 h, the EC50 (human KOP [4]) was greater than 3.33 µM and the Emax (human KOP [4]) was 68.3 ± 5%. For the same compound, the “Mean (%) Mass balance” value ([6]; PAMPA) was 102.22%, the “Pe value relative to negative control theophylline” value ([6]; PAMPA) was “two-fold higher” and the Classification ([6]; PAMPA BBB permeation class) was “Low permeation (Pe<2.0→lowpermeation)”. It also gave a Ki (human KOP [5]) greater than 3.33 µM.
In the case of Dmt-c[D-Lys-Phe-p-CF3-Phe-Asp]NH2 [F18], the Classification ([7]; PAMPA BBB permeation class) is given as “Low permeation (Pe<2.0→lowpermeation)” and the “Mean (%) Mass balance” value ([7]; PAMPA) is given as 95.75%.
In the case of Tyr-c^2,4[DLys-Phe-Dab]-CH2CH2NHCONH2, the enzymatic degradation [8] is given as “resistant to enzymatic degradation” and the antinociceptive response [9] is given as “stronger antinociceptive response than that of morphine”.
For “cyclo(N^ε,N^β’-carbonyl-D-Lys^2,Dap^5)-enkephalinamide”, the IC50 (DOP) is given as 0.00065 µM and the IC50 (MOP) is given as 0.00021 µM.
